Assay results from patent publication US6849405B2, “Translation enhancer element of the human amyloid precursor protein gene” (The Brigham and Women's Hospital, Inc., priority 1997, dated 2005).

Key:
ACT-mRNA = test: Northern blot of ACT-mRNA, astrocytoma cells; type: cell-based, human; settings: Northern blot, 16 hours stimulation
Description: Total RNA (10 μg) was extracted from primary astrocytes and astrocytoma cells with a RNA-STAT kit (Tel-Test). RNA samples were denatured in 50% formamide/2.2 M formaldehyde/20 mM MOPS/5 mM sodium acetate/0.5 mM EDTA, pH 7.4, at 60° C. for 10 minutes, electrophoresed on 1.0% agarose-formaldehyde gels, blotted onto Hybond-N filters and immobilized by UV crosslinking and heating filters to 80° C. Filters were prehybridized for 3 hours and hybridized overnight in a solution consisting of 50% formamide, […] denatured salmon sperm DNA, 5×SSC, 0.1% sodium dodecyl sulfate and 5×Denhardt's solution. Following hybridization, filters were washed twice for a total of 1 hour in 2×SSC/0.2% sodium dodecyl sulfate at room temperature and twice each for a total of 1 hour in 0.5×SSC/0.1% sodium dodecyl sulfate at 55° C. Equal loading was verified by ethidium bromide staining, non-specific hybridization of the ACT probe to the 28S rRNA, and by standardized hybridization to the GAPDH cDNA probe as an internal standard. The APP cDNA probe corresponded to the unique internal 1 kb fragment gel purified from the 3 kb APP cDNA (Kang et al. Nature 325: 733 (1987)), the ACT cRNA probe to a PstI/SacI fragment (536-943) in the human ACT cDNA (Chandra, et al., Biochemistry 22: 5055 (1983)) and the GAPDH probe to the human GAPDH gene (Tokunaga, et al., Cancer Res. 47: 5616 (1987)).

APP/CAT mRNA = test: RNase protection of APP/CAT mRNA in pSV2(APP)CAT-transfected astrocytoma cells; type: cell-based, human; settings: 16 hours stimulation
Description: Cells were lysed in 2 ml of a buffer containing 4 M guanidinium thiocyanate, 25 mM NaOac, pH 6.0, 100 mm β-mercaptoethanol. RNA was prepared after shearing the DNA and centrifuging the lysate at 31K, 23° C. for 12 hours through 5 ml of 5.7 M CsCl2 cushion. This procedure ensured that CAT mRNAs and endogenous ferritin mRNAs were purified as a pellet without contamination from plasmid DNA containing transfected CAT gene sequences. The RNA pellet was resuspended in TES buffer (10 mM Tris, pH 7.6, 1 mM EDTA, 0.5% SDS) and was extracted with an equal volume of phenol/chloroform, ethanol-precipitated and resuspended in TES buffer.
Steady-state levels of transfected CAT mRNA from astrocytoma and neuroblastoma pSV2(APP)(CAT) transfectants was characterized by RNase protection. A 261 nucleotide ^32P-labeled cRNA was transcribed from a HindIII digested DNA template isolated from the CAT gene in the pSV2CAT subclone (Rogers, et al., Nucl. Acid Res. 22: 2678 (1994); Campbell, et al., Biochem. Biophys. Res. Commun. 160: 453 (1989); Fahmy, et al., Biochem. J. 296; 175 (1993)). Labeled cRNA, antisense to the CAT gene, was hybridized to 20 μg of mRNA purified from pSV2(APP)(CAT) transfectants of astrocytoma cells. […] Kinase labeled HaeIII-digested X-174 DNA fragments were used as DNA markers for autoradiography and quantitation of CAT mRNA levels.

Substance	ACT mRNA transcriptional change (ACT-mRNA)	increase of steady-state APP/CAT mRNA level relative to unstimulated cells (APP/CAT mRNA; pSV2(APP)CAT transfected astrocytoma cells)	decrease of steady-state level of CAT mRNA (APP/CAT mRNA; pSV2(APP)CAT transfectants, two separate transfections)
interleukin-1β [IL-1β]	large transcriptional increase	30%	–
interleukin-1α [IL-1α]	large transcriptional increase	–	50%
